Experimental findings from patent publication US8101622B2, “Pyridopyrimidinone inhibitors of PI3Kα and mTOR” (Exelixis, Inc., priority 2008, dated 2012) are described below.

A short description of data set [1]: Mouse microsomal oxidation assay. The format is in vitro ADME. The note with it: 15 μM compound, 0.5 mg/mL microsomal protein, 1 mM NADPH, 37° C., 30 min; +/−10% equivalent to little or no oxidation. As to the method: Mouse Microsomal Oxidation Assay
Microsomal oxidation of test compounds in the presence of mouse liver microsomal fractions was conducted in 96-well microtiter plates. Liver microsomal preparations were purchased from BD Gentest (Cat #452701). Test compounds were incubated in duplicate at 37° C. for 30 min in the presence of liver microsomes and NADPH. Reaction mixtures (75 μL) contained a final concentration of 15 μM test compound, 0.15% DMSO, 0.5 mg/mL microsomal protein and 1 mM NADPH in 100 mM potassium phosphate, pH 7.4 buffer. Control incubations contained the full complement of enzyme and substrate but no NADPH added. All test-sets included reference CYP450 substrates to verify assay performance. Reactions were terminated by the addition of 150 μL acetonitrile containing 0.1% formic acid. The concentration of the test compound remaining was determined by LC/MS/MS analysis on Sciex API-3000 instrument. The % oxidation is determined by the change in peak integration for the test compound (+/−NADPH) relative to the peak integration of internal standard injected with the sample: % oxidation=[((Int. peakcompound, no NADPH/Int. peakstandard)−(Int. peakcompound, NADPH/Int. peakstandard))[…]] Chromatographic separation of analytes was achieved using a Phenomenex Synergi Hydro-RP column (Torrance, Calif.) and a mobile phase consisting of 0.1% formic acid in acetonitrile and 0.1% formic acid in water. A linear gradient from 2-98% acetonitrile was used to elute compounds from the HPLC column. The typical variation (ie, precision) observed in the measurements for a given sample (e.g., multiple injections of the same sample) is ca. 10%, and thus experimental values of +/−10% can be considered to be equivalent to little or no oxidation.

The subject of another data set is PC-3 cells. Description: PC-3 2 day BrdU cell proliferation assay. The format is cell-based, human. The protocol: (§1) MCF-7 and PC-3 2 Day BrdU Cell Proliferation Assay
(§2) MCF-7 (ATCC) and PC-3 (ATCC) cells were seeded onto 96-well plates (Corning, #3904) in their growth medium, DMEM (Cellgro, #10-014-CV)+10% heat-inactivated FBS (Invitrogen)+1% Pen/Strep (Cellgro, #30-002-CI)+1% NEAA (Cellgro, #25-025-CI) at a seeding density of 15000 and 8000 cells/well, respectively. Cells were incubated overnight at 37° C., 5% CO2. Cells were then treated the next day with a serial dilution of compound in its growth medium (containing a final concentration of 0.3% DMSO). Triplicate wells were used for each compound concentration. The control wells received 0.3% DMSO in growth medium. The plates were incubated at 37° C., 5% CO2 for an additional 48 hr. Cells were labeled with BrdU (Roche, #10280879001, 20 μM) for 2-4 hr and then fixed with 70% EtOH+0.1 M NaOH for 30 min at RT. Anti-BrdU-Peroxidase (Roche, #11585860001, 1/2000 in PBS+1% BSA) conjugate was added to the cells, after which the plates were washed 3 times with 1×PBS. Chemiluminescent substrate solution (Pierce, #3707A/B) was added, and the plates were read for luminescence using the Wallac Victor plate reader for 0.1 sec. IC50 values were determined based on cell proliferation with compound treatment compared to the 0.3% DMSO vehicle control.

Another data set has as its system MCF-7 cells. In words: MCF-7 2 day BrdU cell proliferation assay. The settings on record: MCF-7, 48 hr. The format is cell-based, human. The protocol: as §1, §2
For data set [2], the system named is pS6 (S240/S244) PC-3 cell line. Description: pS6 (S240/244) ELISA assay in PC-3 cells. The format is cell-based, human. The note with it: 3 h compound, ratio pS6 to total S6. As to the method:
PC-3 and MCF-7 cells (both from ATCC) were seeded at 8×10^3 cells per well in 96-well plates (Corning, 3904) in DMEM (Cellgro) containing 10% FBS (Cellgro), 1% NEAA (Cellgro) and 1% penicillin-streptomycin (Cellgro). Two plates were prepared for cell fixation ELISA, one for pS6 (S240/244) and one for total S6. Cells were incubated at 37° C., 5% CO2 for 48 h, and the growth medium was replaced with serum-free DMEM. Serial dilutions of the test compound in 0.3% DMSO (vehicle) were added to the cells and incubated for 3 h. To fix the cells, medium was removed and 100 μL/well of 4% formaldehyde (Sigma Aldrich, F8775) in TBS (20 mM Tris, 500 mM NaCl) was added to each well at RT for 30 min. Cells were washed 3 times with 200 μL TBS containing 0.1% Tween20 (Bio-Rad, catalog #170-6351) (TBST), and quenched with 100 μL 0.6% H2O2 (VWR International, catalog #VW3742-1) in TBST for 30 min at RT. Plates were washed 3 times with 200 μL TBST and blocked with 100 μL 5% BSA (Jackson ImmunoResearch, 001-000-173) in TBST for 1 h at RT. Anti-pS6 (S240/244) antibody (Cell Signaling Technology, 2215) and anti-total-S6 antibody (Cell Signaling Technology, 2217) were diluted 1/500 in 5% BSA in TBST, and 50 μL of either primary antibody solution was added to one plate to detect pS6 or total S6. After incubation overnight at 4° C., plates were washed 4 times with 200 μL TBST. Goat anti-rabbit secondary antibody (Jackson ImmunoResearch, catalog #111-035-003) was diluted at 1/15000 in 5% BSA in TBST. 100 μL of antibody solution was added to each well and incubated for 1 h at RT. Plates were washed 3 times with 200 μL TBST and 2 times with 200 μL TBS. Chemiluminescent substrate (Super Signal Elisa Femto Chemiluminescent Substrate; Pierce, 37075) was prepared at RT. One-hundred μL of chemiluminescent substrate per well was added and then the plate was shaken for 1 min. Luminescence was read immediately on a Wallac plate reader. IC50 values were determined based on the ratio of pS6 to total S6 signal for compound treated wells, normalized to the DMSO-treated control wells.
On the technique in general: In an ELISA, binding on a coated surface is turned into a signal by an enzyme label.

The target of another data set is PI3Kβ (Homo sapiens, UniProt P42338). Description: PI3K luciferase-coupled chemiluminescence assay (PI3Kβ in place of PI3Kα). The format is biochemical. The settings on record: second value of cell 'P13K-α, β'. The protocol: (§3) PI3K Luciferase-Coupled Chemiluminescence Assay Protocol
PI3Kβ, sequence (P42338 whole entry, species assumed): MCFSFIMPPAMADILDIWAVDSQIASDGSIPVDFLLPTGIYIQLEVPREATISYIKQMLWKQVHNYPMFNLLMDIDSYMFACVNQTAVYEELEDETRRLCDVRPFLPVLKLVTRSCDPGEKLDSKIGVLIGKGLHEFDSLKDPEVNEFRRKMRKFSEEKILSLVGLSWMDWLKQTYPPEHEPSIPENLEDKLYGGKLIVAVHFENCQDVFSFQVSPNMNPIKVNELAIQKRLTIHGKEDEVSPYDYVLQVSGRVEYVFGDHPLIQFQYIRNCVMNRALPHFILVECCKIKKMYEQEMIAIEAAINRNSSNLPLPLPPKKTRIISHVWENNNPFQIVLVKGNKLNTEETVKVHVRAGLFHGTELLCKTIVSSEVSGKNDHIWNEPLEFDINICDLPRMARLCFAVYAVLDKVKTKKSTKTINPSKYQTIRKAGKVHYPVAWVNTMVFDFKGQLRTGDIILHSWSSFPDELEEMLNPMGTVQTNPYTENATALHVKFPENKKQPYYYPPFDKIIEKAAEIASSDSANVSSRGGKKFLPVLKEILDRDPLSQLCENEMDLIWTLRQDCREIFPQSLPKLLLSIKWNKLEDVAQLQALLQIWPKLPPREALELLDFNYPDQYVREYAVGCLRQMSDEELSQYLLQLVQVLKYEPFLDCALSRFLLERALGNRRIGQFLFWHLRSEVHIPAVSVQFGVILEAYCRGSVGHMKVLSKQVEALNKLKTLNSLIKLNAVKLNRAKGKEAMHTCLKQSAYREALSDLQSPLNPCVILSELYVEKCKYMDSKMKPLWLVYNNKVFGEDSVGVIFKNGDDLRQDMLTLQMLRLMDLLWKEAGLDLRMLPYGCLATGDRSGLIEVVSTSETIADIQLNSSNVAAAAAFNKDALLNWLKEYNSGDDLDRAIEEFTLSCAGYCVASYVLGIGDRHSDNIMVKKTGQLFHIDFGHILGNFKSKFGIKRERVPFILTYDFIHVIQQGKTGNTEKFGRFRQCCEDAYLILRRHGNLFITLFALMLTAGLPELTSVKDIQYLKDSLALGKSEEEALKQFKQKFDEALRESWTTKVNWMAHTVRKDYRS
PI3Kβ, sequence (P27986 whole entry partner, species assumed): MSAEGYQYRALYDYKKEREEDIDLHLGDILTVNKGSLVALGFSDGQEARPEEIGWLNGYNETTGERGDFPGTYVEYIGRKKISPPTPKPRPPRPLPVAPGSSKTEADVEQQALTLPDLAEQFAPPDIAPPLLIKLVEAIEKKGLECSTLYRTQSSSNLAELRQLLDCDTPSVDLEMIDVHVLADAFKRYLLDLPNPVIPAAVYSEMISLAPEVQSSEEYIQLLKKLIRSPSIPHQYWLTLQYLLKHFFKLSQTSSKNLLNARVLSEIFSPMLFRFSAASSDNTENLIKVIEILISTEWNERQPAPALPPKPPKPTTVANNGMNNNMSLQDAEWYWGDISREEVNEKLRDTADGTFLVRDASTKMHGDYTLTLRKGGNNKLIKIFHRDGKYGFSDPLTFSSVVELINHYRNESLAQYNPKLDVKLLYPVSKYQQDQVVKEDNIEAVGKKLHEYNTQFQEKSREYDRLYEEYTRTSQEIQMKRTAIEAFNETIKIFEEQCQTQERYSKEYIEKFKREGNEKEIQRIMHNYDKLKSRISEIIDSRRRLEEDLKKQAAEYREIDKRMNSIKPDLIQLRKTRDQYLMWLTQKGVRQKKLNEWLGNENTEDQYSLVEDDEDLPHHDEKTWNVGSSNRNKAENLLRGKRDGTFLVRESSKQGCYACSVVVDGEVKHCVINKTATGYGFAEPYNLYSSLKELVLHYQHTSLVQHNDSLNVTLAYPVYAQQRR
(§4) PI3Kα activity is measured as the percent of ATP consumed following the kinase reaction using luciferase-luciferin-coupled chemiluminescence. Reactions were conducted in 384-well white, medium binding microtiter plates (Greiner). Kinase reactions were initiated by combining test compounds, ATP, substrate (PIP2), and kinase in a 20 μL volume in a buffer solution. The standard PI3Kalpha assay buffer is composed 50 mM Tris, pH 7.5, 1 mM EGTA, 10 mM MgCl2, 1 mM DTT and 0.03% CHAPS. The standard assay concentrations for enzyme, ATP, and substrate are 1.5 nM, 1 μM, and 10 μM, respectively. The reaction mixture was incubated at ambient temperature for approximately 2 h. Following the kinase reaction, a 10 μL aliquot of luciferase-luciferin mix (Promega Kinase-Glo) was added and the chemiluminescence signal measured using a Victor2 plate reader (Perkin Elmer). Total ATP consumption was limited to 40-60% and IC50 values of control compounds correlate well with literature references. PI3Kα can be replaced with PI3Kβ, PI3Kδ, or PI3Kγ to determine the compound's activity for the other isoforms of PI3K.

A further data set has as its target PI3Kα (Homo sapiens, UniProt P42336). In words: PI3K luciferase-coupled chemiluminescence assay (PI3Kα). The format is biochemical. The note with it: first value of cell 'P13K-α, β'; 1 μM ATP, 10 μM PIP2. As to the method: as §3, §4
The target in another data set is mTOR/GbL/Raptor (mTORC1) (Homo sapiens, UniProt P42345). Description: mTOR/GbL/Raptor (mTORC1) ELISA assay. The settings on record: mTORC1, 10 μM ATP, 4E-BP1 substrate. The format is biochemical. As to the method:
mTOR/GbL/Raptor (mTORC1) ELISA Assay
The measurement of mTORC1 enzyme activity was performed in an ELISA assay format following the phosphorylation of 4E-BP1 protein. All experiments were performed in the 384-well format. Generally, 0.5 μL DMSO containing varying concentrations of the test compound was mixed with 15 μL enzyme solution. Kinase reactions were initiated with the addition of 15 μL of substrates-containing solution. The assay conditions were as follows; 0.2 nM mTORC1, 10 μM ATP and 50 nM NHis-tagged 4E-BP1 in 20 mM Hepes, pH 7.2, 1 mM DTT, 50 mM NaCl, 10 mM MnCl2, 0.02 mg/mL BSA, 0.01% CHAPS, 50 mM ([…]. Following an incubation of 120 minutes at ambient temperature, 20 μL of the reaction volume was transferred to a Ni-Chelate-coated 384-well plate. The binding step of the 4E-BP1 protein proceeded for 60 minutes, followed by washing 4 times each with 50 μL of Tris-buffered saline solution (TBS). Anti-phospho-4E-BP1 rabbit-IgG (20 μL, 1:5000) in 5% BSA-TBST (0.2% Tween-20 in TBS) was added and further incubated for 60 minutes. Incubation with a secondary HRP-tagged anti-IgG was similarly performed after washing off the primary antibody (4 washes of 50 μL). Following the final wash step with TBST, 20 μL of SuperSignal ELISA Femto (Pierce Biotechnology) was added and the luminescence measured using an EnVision plate reader.

Molecules are shown by their SMILES.

The IC50 is the concentration that gives 50% inhibition.

PI3Kα, sequence (P42336 whole entry): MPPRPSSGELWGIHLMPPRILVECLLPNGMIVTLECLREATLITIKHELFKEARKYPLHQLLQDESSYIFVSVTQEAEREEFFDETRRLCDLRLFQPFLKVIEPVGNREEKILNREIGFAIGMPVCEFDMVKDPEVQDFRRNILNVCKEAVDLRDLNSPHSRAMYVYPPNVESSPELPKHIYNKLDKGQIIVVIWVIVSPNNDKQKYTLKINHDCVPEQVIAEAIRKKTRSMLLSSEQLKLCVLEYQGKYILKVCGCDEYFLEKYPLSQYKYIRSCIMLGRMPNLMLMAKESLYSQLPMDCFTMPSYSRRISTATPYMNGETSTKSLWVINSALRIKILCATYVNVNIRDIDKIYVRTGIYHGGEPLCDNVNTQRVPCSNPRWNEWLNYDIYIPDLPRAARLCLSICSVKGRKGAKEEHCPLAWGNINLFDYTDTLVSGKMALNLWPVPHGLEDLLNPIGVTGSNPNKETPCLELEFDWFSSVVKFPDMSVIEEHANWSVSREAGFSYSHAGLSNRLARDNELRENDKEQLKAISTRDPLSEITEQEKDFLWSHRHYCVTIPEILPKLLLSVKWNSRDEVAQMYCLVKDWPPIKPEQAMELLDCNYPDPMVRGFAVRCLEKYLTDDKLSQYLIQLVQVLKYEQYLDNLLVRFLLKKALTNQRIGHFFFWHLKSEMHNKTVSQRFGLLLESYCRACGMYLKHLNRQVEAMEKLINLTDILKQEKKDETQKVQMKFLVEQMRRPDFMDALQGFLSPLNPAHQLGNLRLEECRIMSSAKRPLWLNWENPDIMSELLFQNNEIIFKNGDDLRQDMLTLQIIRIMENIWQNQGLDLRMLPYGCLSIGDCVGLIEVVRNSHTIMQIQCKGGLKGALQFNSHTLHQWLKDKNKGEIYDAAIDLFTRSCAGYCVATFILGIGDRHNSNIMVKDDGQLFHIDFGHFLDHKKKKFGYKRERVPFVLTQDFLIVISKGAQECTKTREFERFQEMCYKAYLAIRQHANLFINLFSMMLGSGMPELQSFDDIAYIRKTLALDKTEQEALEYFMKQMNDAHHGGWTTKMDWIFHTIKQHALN
PI3Kα, sequence (P27986 whole entry partner): as the sequence (P27986 whole entry partner, species assumed) above

For `Cc1nc(N)nc2c1cc(-c1ccc(N)nc1)c(=O)n2C1CCCOC1` (centres unmarked) [listing 1 of 2 here], in data set [1], the “Mouse Liver Microsome Oxidation (%)” value came out at 6.6%. Further, the half-maximal inhibitory concentration (IC50) in the data set on PC-3 cells (Homo sapiens, PC-3, 48 h) came to 297 nM; with MCF-7 cells (Homo sapiens, MCF7, 48 h), 151 nM; in data set [2] (Homo sapiens, PC-3, 3 h), 25.6 nM.

Regarding `Cc1nc(N)nc2c1cc(-c1ccc(N)nc1)c(=O)n2C1CCOCC1`, in data set [1], the “Mouse Liver Microsome Oxidation (%)” value was −7.8%. Moreover, the IC50 stood at 19.8 nM on PI3Kβ; 9 nM against PI3Kα; 3.2 nM against mTOR/GbL/Raptor (mTORC1); 280 nM with PC-3 cells (Homo sapiens, PC-3, 48 h); 152 nM with MCF-7 cells (Homo sapiens, MCF7, 48 h); 25 nM in data set [2] (Homo sapiens, PC-3, 3 h).

As to `Cc1nc(N)nc2c1cc(-c1ccc(N)nc1)c(=O)n2C1CCOC1` (centres unmarked) [listing 1 of 2 here], in data set [1], the “Mouse Liver Microsome Oxidation (%)” value is reported as −8.2%. The IC50 is 34 nM at PI3Kβ; less than 9.1 nM against PI3Kα; 2.5 nM against mTOR/GbL/Raptor (mTORC1); 497 nM in the data set on PC-3 cells (PC-3, 48 hr); 217 nM with MCF-7 cells; 18.5 nM in data set [2].

Regarding `Cc1nc(N)nc2c1cc(-c1ccc(N(C)C)nc1)c(=O)n2[C@H]1CCCOC1` [reference compound], the IC50 at PI3Kβ is 471 nM; at PI3Kα it was 9.2 nM; against mTOR/GbL/Raptor (mTORC1), 5.8 nM.

On to `Cc1nc(N)nc2c1cc(-c1ccc(N)nc1)c(=O)n2[C@H]1CCCOC1`, for which the IC50 against PI3Kβ amounted to 60.8 nM; on PI3Kα, 7.3 nM; against mTOR/GbL/Raptor (mTORC1), 3 nM.

In the case of `Cc1nc(N)nc2c1cc(-c1ccc(N(C)C)nc1)c(=O)n2C1CCCOC1` (centres unmarked) [reference compound] [listing 1 of 2 here], the “Mouse Liver Microsome Oxidation (%)” value in data set [1] came to 41.3%. The 50% inhibitory concentration (IC50) in the data set with PC-3 cells (Homo sapiens, PC-3, 48 h) came to 1330 nM; in the data set with MCF-7 cells (Homo sapiens, MCF7, 48 h), 247 nM; in data set [2] (Homo sapiens, PC-3, 3 h), 71.7 nM.

Take `Cc1nc(N)nc2c1cc(-c1ccc(N(C)C)nc1)c(=O)n2C1CCCOC1` (centres unmarked) [reference compound] [listing 2 of 2 here]: in data set [1], the “Mouse Liver Microsome Oxidation (%)” value is reported as 31.2%. Moreover, the IC50 against PI3Kβ was determined as 205 nM; against PI3Kα it was 13.5 nM; against mTOR/GbL/Raptor (mTORC1), 6.1 nM; with PC-3 cells (PC-3, 48 hr), 741 nM; in the data set with MCF-7 cells, 151 nM; in data set [2], 96.2 nM.

`COc1ccc(-c2cc3c(C)nc(N)nc3n(C3CCCOC3)c2=O)cn1` (centres unmarked) [reference compound]: in data set [1], the “Mouse Liver Microsome Oxidation (%)” value was 45.6%. For the same compound, the concentration for half-maximal inhibition (IC50) turned out to be 6.8 nM on PI3Kβ; 2.8 nM against PI3Kα; 6.8 nM at mTOR/GbL/Raptor (mTORC1); 469 nM in the data set with PC-3 cells (Homo sapiens, PC-3, 48 h); 218 nM in the data set on MCF-7 cells (Homo sapiens, MCF7, 48 h); 40.8 nM in data set [2] (Homo sapiens, PC-3, 3 h).

Turning to `Cc1nc(N)nc2c1cc(-c1ccc(N)nc1)c(=O)n2C1CCCOC1` (centres unmarked) [listing 2 of 2 here], in data set [1], the “Mouse Liver Microsome Oxidation (%)” value is listed as 15.2%. The IC50 on PI3Kβ stood at 52.1 nM; at PI3Kα it was 5.5 nM; at mTOR/GbL/Raptor (mTORC1), 2.6 nM; in the data set on PC-3 cells (PC-3, 48 hr), 150 nM; in the data set on MCF-7 cells it was 97.8 nM; in data set [2], 15.8 nM.

With `Cc1nc(N)nc2c1cc(-c1ccc(N)nc1)c(=O)n2C1CCOC1` (centres unmarked) [listing 2 of 2 here], the “Mouse Liver Microsome Oxidation (%)” value in data set [1] came out at 1.7%. Further, the IC50 is 401 nM with PC-3 cells (Homo sapiens, PC-3, 48 h); 377 nM with MCF-7 cells (Homo sapiens, MCF7, 48 h); 36.6 nM in data set [2] (Homo sapiens, PC-3, 3 h).

With `Cc1nc(N)nc2c1cc(-c1ccc(N)nc1)c(=O)n2[C@H]1CCOC1`, the IC50 against PI3Kβ is 16.7 nM; against PI3Kα, 15.5 nM; against mTOR/GbL/Raptor (mTORC1) it was 5.5 nM.
